Assay results as given in US20160050958A1, “IMPROVED SWEETENER” (TATE & LYLE INGREDIENTS AMERICAS LLC, priority 2013, published 2016).

Tests used:
[1] = Round table sweetness evaluation by test panelists (SEV determination against sucrose references); conditions: samples made to equal sweet 10 SEV in neutral pH water, room temperature; references 4-14% sucrose
Description: Round table evaluations were performed with test panelists. Equal sweet 10 SEV concentrations in neutral pH water were made for allulose, AceK and fructose, as well as a composition comprising allulose, AceK and fructose. The components of the test compositions are described in the below tables. The mixed compositions were calculated using the Beidler mixture equation for the sweeteners. The Beidler mixture equation for sweeteners is as follows: […]
The concentration of each component in the mixture in ppm is divided by SEV (c/R) and is plotted against concentration, c. The slope of the linear regression is […]. The y-intercept of the linear regression multiplied by Rmax is the half-maximal sweetness concentration, 1/K. Rmax and 1/K are the two parameters used in the Beidler equation
The equal-molar mixture was tested against reference samples for the panelists to determine SEV values. […] The test samples were served in 2 ounce soufflé cups (approximately 60 ml) coded with 3-digit codes at room temperature. A two minute wait period between samples was enforced. Water and unsalted crackers was available for the panelists to clear their palates before and during testing. EyeQuestion was used for ballot development and recording of results. Results were collected in EyeQuestion for calculating approximate SEV level of each test sample.
The test products analyzed in this experiment are described below in Table 1.

[2] = % of the sweetness of sucrose; cited from earlier work

## CC1=CC(=O)[N-]S(=O)(=O)O1.[K+] [AceK, potassium salt of 6-methyl-1,2,3-oxathiazine-4(3H)-one 2,2-dioxide]
[1]
  Mean sucrose equivalent value (SEV): 9.286
  Median sucrose equivalent value (SEV): 8

## O=C(CO)C(O)C(O)C(O)CO (stereo not shown) [Allulose, allulose]
[1]
  Mean sucrose equivalent value (SEV): 10.14
  Median sucrose equivalent value (SEV): 10
[2]
  Sweetness relative to sucrose: around 70%

## O=C(CO)[C@@H](O)[C@H](O)[C@H](O)CO [Fructose, fructose]
[1]
  Mean sucrose equivalent value (SEV): 10.14
  Median sucrose equivalent value (SEV): 10
